These results are taken from ChEMBL document CHEMBL1153106, “Thyroid receptor agonists for the treatment of androgenetic alopecia” (Bioorg Med Chem Lett, 2010).

Structures are written as SMILES. Activity calls are given as the source filed them. The rule behind the calls is not given here.

The target of series [1] is T1, Thyroid hormone receptor beta (Homo sapiens, UniProt P10828).
T1 sequence (P10828 whole entry): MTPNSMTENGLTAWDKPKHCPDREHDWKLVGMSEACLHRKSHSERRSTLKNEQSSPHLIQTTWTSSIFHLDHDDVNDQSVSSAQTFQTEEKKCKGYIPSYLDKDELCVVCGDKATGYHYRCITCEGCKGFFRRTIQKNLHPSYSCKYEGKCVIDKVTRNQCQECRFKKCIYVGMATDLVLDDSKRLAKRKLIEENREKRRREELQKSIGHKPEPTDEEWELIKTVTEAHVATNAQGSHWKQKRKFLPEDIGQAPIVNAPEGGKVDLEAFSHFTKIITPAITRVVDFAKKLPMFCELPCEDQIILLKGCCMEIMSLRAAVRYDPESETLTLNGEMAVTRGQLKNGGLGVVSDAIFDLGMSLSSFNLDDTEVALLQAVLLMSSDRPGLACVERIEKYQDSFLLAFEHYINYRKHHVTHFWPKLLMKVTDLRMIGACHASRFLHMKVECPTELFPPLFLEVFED
In words: Binding affinity to thyroid receptor beta.

The target in series [2] is T2, Thyroid hormone receptor alpha (Homo sapiens, UniProt P10827).
T2 sequence (P10827 whole entry): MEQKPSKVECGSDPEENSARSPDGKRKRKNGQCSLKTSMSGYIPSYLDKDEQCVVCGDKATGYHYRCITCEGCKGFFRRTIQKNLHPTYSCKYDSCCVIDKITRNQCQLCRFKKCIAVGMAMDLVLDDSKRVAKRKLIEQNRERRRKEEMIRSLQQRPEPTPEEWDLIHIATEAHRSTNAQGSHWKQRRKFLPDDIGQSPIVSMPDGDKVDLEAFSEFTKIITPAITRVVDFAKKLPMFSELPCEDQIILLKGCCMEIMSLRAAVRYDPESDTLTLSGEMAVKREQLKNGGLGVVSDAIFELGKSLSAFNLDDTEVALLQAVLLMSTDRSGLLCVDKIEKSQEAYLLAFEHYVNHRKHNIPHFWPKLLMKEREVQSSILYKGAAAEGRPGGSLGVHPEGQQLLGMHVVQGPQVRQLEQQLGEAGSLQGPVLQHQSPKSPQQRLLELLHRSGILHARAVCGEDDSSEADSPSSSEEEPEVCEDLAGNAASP
In words: Binding affinity to thyroid receptor alpha.

The test system of series [3] is Mus musculus. In words: Hair growth stimulatory activity in C3H/HeN mouse treated 5 days a week topically to shaved lower back twice daily for 4 weeks. The format is functional.
For series [4], the target named is T3, Thyroid hormone receptor (Homo sapiens, UniProt P10827+P10828).
T3 sequence (P10827 whole entry): T2 sequence (P10827 whole entry)
T3 sequence (P10828 whole entry): T1 sequence (P10828 whole entry)
In words: Binding affinity to thyroid hormone receptor in human HepG2 cells.

Series [5] deals with Mus musculus. In words: Ratio of drug to minoxidil MED for hair growth stimulatory activity in female C3H/HeN mouse at 1 mg/mL, treated topically to shaved lower back as single dose. The format is functional, organism-based.
For series [6], the system named is Mus musculus. In words: Ratio of drug to minoxidil MED for hair growth stimulatory activity in female C3H/HeN mouse at 0.1 mg/mL, treated topically to shaved lower back as single dose. The format is functional, organism-based.
A short description of series [7]: Metabolic stability in rat liver microsomes. The format is ADME, Microsome. In general terms: Liver microsomes are vesicles of endoplasmic reticulum, rich in cytochrome P450 enzymes.
Series [8] can be described thus: Half life in rat hepatocytes. The format is ADME, cell-based, Liver, Hepatocyte.
The nature of series [9]: Clearance in rat blood. The format is ADME, organism-based.
A short description of series [10]: Intrinsic clearance in rat. The format is ADME, organism-based. Conditions: not recorded.
Series [11] in a line: Metabolic stability in […] human liver microsomes. The format is ADME, Microsome.
Series [12] in a line: Half life in human hepatocytes. The format is ADME, cell-based, Liver, Hepatocyte.
Series [13] can be described thus: Clearance in human blood. The format is ADME, organism-based.
Series [14] can be described thus: Intrinsic clearance in human. The following applies: not recorded. The format is ADME, organism-based.
The nature of series [15]: Plasma clearance in rat at 0.5 mg/kg, iv. The format is ADME, organism-based. Further details: dose 0.5 mg/kg, route intravenous.
The test system of series [16] is Rattus norvegicus. In words: Apparent volume of distribution at steady state in rat at 0.5 mg/kg, iv. The format is ADME, organism-based. Further details: dose 0.5 mg/kg, route intravenous. The following applies: in vivo.
Series [17] in a line: Terminal half life in rat at 0.5 mg/kg, iv. The format is ADME, organism-based. More on the design: dose 0.5 mg/kg, route intravenous. Conditions: in vivo, read-out: beta t1/2 (converted).
In series [18] the test system is Zone of skin. The experiment in a line: Effect on transepidermal penetration in human cadaver skin assessed as maximal penetration rate after 28 hrs using Franz diffusion chamber. The format is functional.
The subject of series [19] is Zone of skin. In words: Effect on transepidermal penetration in human cadaver skin assessed as total penetration after 40 hrs using Franz diffusion chamber. The format is functional.
Series [20] relates to Zone of skin. In words: Effect on transepidermal penetration in human cadaver skin assessed as drug distributed to dermis after 40 hrs using Franz diffusion chamber. The format is functional.
The subject of series [21] is Zone of skin. The experiment in a line: Effect on transepidermal penetration in human cadaver skin assessed as drug distributed to epidermis after 40 hrs using Franz diffusion chamber. The format is functional.
The subject of series [22] is NIH3T3. The experiment in a line: Phototoxicity in mouse 3T3 cells by neutral red uptake assay. The format is cell-based.
Series [23] is filed under the species Macaca arctoides. The experiment in a line: Hair growth stimulatory activity in bal stump-tailed monkey model. The format is functional.
A short description of series [24]: Drug level in bald stump-tailed monkey model after 2 months. The following applies: macaca arctoides, in vivo; read-out: Drug uptake. The format is ADME, organism-based.
Series [25] in a line: Drug level in bald stump-tailed monkey model after 3 months. Conditions: macaca arctoides, in vivo; read-out: Drug uptake. The format is ADME, organism-based.
A short description of series [26]: Drug level in bald stump-tailed monkey model after 4 months. The format is ADME, organism-based. Conditions: macaca arctoides, in vivo; read-out: Drug uptake.
The nature of series [27]: Toxicity in bald stump-tailed monkey skin after 4 months. The format is tissue-based, Zone of skin. The following applies: macaca arctoides, in vivo, 2922 h.

For `Cc1cc(NC(=O)C(=O)O)cc(C)c1Oc1ccc(O)c2c1CCC2`, the Ki was 0.5 nM in [1] and 0.7 nM in series [2]. The compound further had an MED in [3] of 1%.

`O=C(c1cc(Oc2c(Cl)cc(-n3ncc(=O)[nH]c3=O)cc2Cl)ccc1O)N1CCCCC1`: the Ki in series [1] was found to be 1 nM; in series [2], 20 nM. Also, the MED in [3] was 0.1%.

Turning to `Cc1cc(-n2ncc(=O)[nH]c2=O)cc(C)c1Oc1ccc(O)c(Cc2ccc(F)cc2)c1`, the inhibition constant (Ki) in [1] was found to be 0.4 nM; in [2], 3 nM. Besides, the figures for the MED in [3] and in series [23] were 0.003% and 0.1%, respectively. This compound also yielded an EC50 in series [4] of 0.5 nM. Further, the outcome in series [5] and in series [6] was Active. The half-life in [7] is 40 min; in series [8], 45 min; in series [11], 39 min; in series [12], 119 min; in series [17] it was 164 min. For the same compound, the clearance in series [9] stood at 51 mL/min/kg; in [13], 15 mL/min/kg; in [15] it was 40 mL/min/kg. Besides, the intrinsic metabolic clearance (CLint scaled) in [10] turned out to be 149 mL/min/kg; in series [14], 29 mL/min/kg. Besides, the Vdss(app) in series [16] was 4.88 L/kg. Besides, the Activity is recorded as 0.14 microg/cm2/h in [18]; 6.17% in [19]; 0.58% in series [20]; 9.88% in series [21]; “Non-toxic” in series [22]; “Non-toxic” in series [27]. The concentration at 1461 h in series [24] is less than 2 ng/mL. For the same compound, the concentration at 2191.5 h in series [25] is less than 1 ng/mL. Further, the concentration at 2922 h in [26] is less than 1 ng/mL.

For `Cc1cc(NC(=O)CC(=O)O)cc(Cl)c1Oc1ccc(O)c(S(=O)(=O)CC2CCC2)c1`, the Ki in [1] worked out at 0.5 nM; in [2], 2.1 nM. In series [3], the MED was determined as 0.1%.

As to `O=C(c1cc(Oc2c(Cl)cc(-n3ncc(=O)[nH]c3=O)cc2Cl)ccc1O)N1CCc2ccccc2C1`, the results for the inhibitory constant (Ki) in series [1] and in series [2] were 2 nM and 126 nM, respectively. In series [3], this compound showed an MED of 0.1%.

With `O=c1cnn(-c2cc(Cl)c(Oc3ccc(O)c(Cc4ccc(F)cc4)c3)c(Cl)c2)c(=O)[nH]1`, the inhibition constant Ki in series [1] came to 0.51 nM; in series [2] it was 8 nM. The MED in series [3] came out at 0.01%.

Take `Nc1cc(N2CCCCC2)nc(N)[n+]1[O-]` [MINOXIDIL]: the MED in [3] turned out to be 2.5%; in series [23] it was 2%.

The term Ki denotes a dissociation constant, usually derived from enzyme kinetics or from competition with a known ligand. What is called EC50 is the concentration needed to bring the measured effect to its halfway point. By clearance is commonly meant a measure of how efficiently the substance is removed, as volume per time. As a reminder, the CLint scaled is a measure of how fast metabolising enzymes remove a compound, apart from limits set by blood flow.
